The molecules below were run against T1, CCR1 (Homo sapiens, UniProt P32246) (assay: Method B: calcium flux in CCR1 transfected cells (Calcium 4 dye, […] FDSS6000), block of the CCR1/MIP-1α interaction). Settings: Method B: Calcium 4 dye, MIP-1alpha at EC80.
T1 sequence (P32246 1-355): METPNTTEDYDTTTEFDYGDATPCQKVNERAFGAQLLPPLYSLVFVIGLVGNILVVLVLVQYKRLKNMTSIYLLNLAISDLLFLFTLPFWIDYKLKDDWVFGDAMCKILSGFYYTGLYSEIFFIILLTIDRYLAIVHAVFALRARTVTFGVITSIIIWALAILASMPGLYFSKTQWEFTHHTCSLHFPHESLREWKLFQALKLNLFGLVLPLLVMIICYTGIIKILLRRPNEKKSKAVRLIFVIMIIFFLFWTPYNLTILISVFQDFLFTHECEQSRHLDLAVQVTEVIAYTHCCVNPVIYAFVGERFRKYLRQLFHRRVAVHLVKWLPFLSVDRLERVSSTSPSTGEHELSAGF
Assay type: cell-based
Method in brief: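 Non-adherent cells stably expressing CCR1 and G-alpha-16 were loaded with Calcium 4 dye plus probenecid for 1 h at room temperature. Compounds (top 3,000 nM, 4-fold, 10 doses, 1% DMSO) in HBSS/20 mM HEPES pH 7.4 were incubated 30 min at 37 C, then 30 min at room temperature. MIP-1α at EC80 was added and calcium flux read on FDSS6000.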

Compared with `CCC[C@H](NC(=O)c1cncc2c1cnn2-c1ccc(F)cc1)c1ccc(S(C)(=O)=O)nc1` [1-(4-Fluorophenyl)-1H-pyrazolo[3,4-c]pyridine-4-carboxylic acid [(S)-1-(6-methanesulfonyl-pyridin-3-yl)-butyl]-amide], `CCC(NC(=O)c1cncc2c1cnn2-c1ccc(F)cc1)c1ccc(S(C)(=O)=O)[n+]([O-])c1` (centres unmarked) [1-(4-Fluorophenyl)-1H-pyrazolo[3,4-c]pyridine-4-carboxylic acid [1-(6-methanesulfonyl-1-oxy-pyridin-3-yl)-propyl]-amide] is 22-fold higher in IC50: 0.4 nM for the first, 9 nM for the second.

First: CC[C@H](NC(=O)c1cncc2c1cnn2-c1ccc(F)cc1)c1ccc(S(C)(=O)=O)s1 [1-(4-Fluorophenyl)-1H-pyrazolo[3,4-c]pyridine-4-carboxylic acid [(S)-1-(5-methanesulfonyl-thiophen-2-yl)-propyl]-amide]
Second: CS(=O)(=O)c1ccc(CNC(=O)c2cncc3c2cnn3-c2ccc(F)cc2)s1 [1-(4-Fluorophenyl)-1H-pyrazolo[3,4-c]pyridine-4-carboxylic acid (5-methanesulfonyl-thiophen-2-ylmethyl)-amide]
The IC50 of the first is 25-fold lower: 0.2 nM for the first, 5 nM for the second. The first is the more potent here.

First: CC[C@@H](NC(=O)c1cncc2c1cnn2-c1ccc(F)cc1)c1cc(S(C)(=O)=O)cn1C [1-(4-Fluorophenyl)-1H-pyrazolo[3,4-c]pyridine-4-carboxylic acid [(R)-1-(4-methanesulfonyl-1-methyl-1H-pyrrol-2-yl)-propyl]-amide]
Second: CC[C@H](NC(=O)c1cncc2c1cnn2-c1ccc(F)cc1)c1cc(S(C)(=O)=O)ccn1 [1-(4-Fluorophenyl)-1H-pyrazolo[3,4-c]pyridine-4-carboxylic acid [(S)-1-(4-methanesulfonyl-pyridin-2-yl)-propyl]-amide]
The IC50 of the first is 8.8-fold higher: 7 nM for the first, 0.8 nM for the second. The second is the more potent here.

Compared with `CC[C@H](NC(=O)c1cncc2c1cnn2-c1ccc(F)cc1)c1ccnc(S(N)(=O)=O)c1` [1-(4-Fluorophenyl)-1H-pyrazolo[3,4-c]pyridine-4-carboxylic acid [(S)-1-(2-sulfamoyl-pyridin-4-yl)-propyl]-amide], `CC[C@H](NC(=O)c1cncc2c1cnn2-c1ccc(F)cc1)c1ccnc(S(=O)(=O)CC)c1` [1-(4-Fluorophenyl)-1H-pyrazolo[3,4-c]pyridine-4-carboxylic acid [(S)-1-(2-ethanesulfonyl-pyridin-4-yl)-propyl]-amide] is 2-fold lower in IC50: 0.4 nM for the first, 0.2 nM for the second.

`CC[C@H](NC(=O)c1cncc2c1cnn2-c1ccc(F)cc1)c1ccnc([S@+](C)[O-])c1` [1-(4-Fluorophenyl)-1H-pyrazolo[3,4-c]pyridine-4-carboxylic acid {(S)-1-[2-((S)-methanesulfinyl)-pyridin-4-yl]-propyl}-amide] and `CC[C@H](NC(=O)c1cncc2c1cnn2-c1ccc(F)cc1)c1ccnc([S@@+](C)[O-])c1` [1-(4-Fluorophenyl)-1H-pyrazolo[3,4-c]pyridine-4-carboxylic acid {(S)-1-[2-((R)-methanesulfinyl)-pyridin-4-yl]-propyl}-amide] are within 1.5-fold of each other in IC50: 0.5 nM for the first, 0.6 nM for the second.

Going from `CN(CC(N)=O)c1cc(CNC(=O)c2cncc3c2cnn3-c2ccc(F)cc2)cc(S(C)(=O)=O)n1` [1-(4-Fluorophenyl)-1H-pyrazolo[3,4-c]pyridine-4-carboxylic acid [2-(carbamoylmethyl-methyl-amino)-6-methanesulfonyl-pyridin-4-ylmethyl]-amide] to `Cc1cc(CNC(=O)c2cncc3c2cnn3-c2ccc(F)cc2)cc(S(C)(=O)=O)n1` [1-(4-Fluorophenyl)-1H-pyrazolo[3,4-c]pyridine-4-carboxylic acid (2-methanesulfonyl-6-methyl-pyridin-4-ylmethyl)-amide], the IC50 rises from 3 nM to 5 nM (1.7-fold). The first is the more potent here.

First: O=C(NCc1ccc(Br)s1)c1cncc2c1cnn2-c1ccc(F)cc1 [1-(4-Fluorophenyl)-1H-pyrazolo[3,4-c]pyridine-4-carboxylic acid (5-bromo-thiophen-2-ylmethyl)-amide]
Second: COc1cc(CNC(=O)c2cncc3c2cnn3-c2ccc(F)cc2)cc(S(C)(=O)=O)n1 [1-(4-Fluorophenyl)-1H-pyrazolo[3,4-c]pyridine-4-carboxylic acid (2-methanesulfonyl-6-methoxy-pyridin-4-ylmethyl)-amide]
The IC50 of the first is 19-fold higher: 19 nM for the first, 1 nM for the second. The second is the more potent here.

Going from `CCC(NC(=O)c1cncc2c1cnn2-c1ccc(F)cc1)c1nc(C(N)=O)c(C)o1` (centres unmarked) [1-(4-Fluorophenyl)-1H-pyrazolo[3,4-c]pyridine-4-carboxylic acid [1-(4-carbamoyl-5-methyl-oxazol-2-yl)-propyl]-amide] to `CCC(NC(=O)c1cncc2c1cnn2-c1ccc(F)cc1)c1nc(C(=O)NC)c(C)o1` (centres unmarked) [1-(4-Fluorophenyl)-1H-pyrazolo[3,4-c]pyridine-4-carboxylic acid [1-(5-methyl-4-methylcarbamoyl-oxazol-2-yl)-propyl]-amide], the IC50 falls from 26 nM to 9 nM (2.9-fold). The second is the more potent here.

First: CC[C@H](NC(=O)c1cncc2c1cnn2-c1ccc(F)cc1)c1ccnc(N2CCN(C(C)=O)CC2)c1 [1-(4-Fluorophenyl)-1H-pyrazolo[3,4-c]pyridine-4-carboxylic acid {(S)-1-[2-(4-acetyl-piperazin-1-yl)-pyridin-4-yl]-propyl}-amide]
Second: CC[C@H](NC(=O)c1cncc2c1cnn2-c1ccc(F)cc1)c1ccnc(N2CCS(=O)(=O)CC2)c1 [1-(4-Fluorophenyl)-1H-pyrazolo[3,4-c]pyridine-4-carboxylic acid {(S)-1-[2-(1,1-dioxo-1λ6-thiomorpholin-4-yl)-pyridin-4-yl]-propyl}-amide]
The IC50 of the first is 2.4-fold lower: 5 nM for the first, 12 nM for the second. The first is the more potent here.

`CC[C@H](NC(=O)c1cncc2c1cnn2-c1ccc(F)cc1)c1ccnc(Cl)c1` [1-(4-Fluorophenyl)-1H-pyrazolo[3,4-c]pyridine-4-carboxylic acid [(S)-1-(2-chloropyridin-4-yl)-propyl]-amide] and `C=CC[C@H](NC(=O)c1cncc2c1cnn2-c1ccc(F)cc1)c1ccnc(S(C)(=O)=O)c1` [1-(4-Fluorophenyl)-1H-pyrazolo[3,4-c]pyridine-4-carboxylic acid [(S)-1-(2-methanesulfonyl-pyridin-4-yl)-but-3-enyl]-amide] are within 1.5-fold of each other in IC50: 0.2 nM for the first, 0.3 nM for the second.

First: CC[C@H](NC(=O)c1cncc2c1cnn2-c1ccc(F)cc1)c1nc(S(C)(=O)=O)cs1 [1-(4-Fluorophenyl)-1H-pyrazolo[3,4-c]pyridine-4-carboxylic acid [(S)-1-(4-methanesulfonyl-thiazol-2-yl)-propyl]-amide]
Second: CC[C@H](NC(=O)c1cncc2c1cnn2-c1ccc(F)cc1)c1c[nH]c(S(C)(=O)=O)c1 [1-(4-Fluorophenyl)-1H-pyrazolo[3,4-c]pyridine-4-carboxylic acid [(S)-1-(5-methanesulfonyl-1H-pyrrol-3-yl)-propyl]-amide]
The IC50 of the first is 3-fold lower: 0.3 nM for the first, 0.9 nM for the second. The first is the more potent here.

First: CC[C@@H](NC(=O)c1cncc2c1cnn2-c1ccc(F)cc1)c1ccc(OC)c(S(C)(=O)=O)c1 [1-(4-Fluorophenyl)-1H-pyrazolo[3,4-c]pyridine-4-carboxylic acid [(R)-1-(3-methanesulfonyl-4-methoxy-phenyl)-propyl]-amide]
Second: CC[C@H](NC(=O)c1cncc2c1cnn2-c1ccc(F)cc1)c1ccn(S(C)(=O)=O)n1 [1-(4-Fluorophenyl)-1H-pyrazolo[3,4-c]pyridine-4-carboxylic acid [(S)-1-(1-methanesulfonyl-1H-pyrazol-3-yl)-propyl]-amide]
The IC50 of the first is 15-fold lower: 0.2 nM for the first, 3 nM for the second. The first is the more potent here.

Compared with `C[C@H](NC(=O)c1cncc2c1cnn2-c1ccc(F)cc1)c1csc(S(C)(=O)=O)n1` [1-(4-Fluorophenyl)-1H-pyrazolo[3,4-c]pyridine-4-carboxylic acid [(S)-1-(2-methanesulfonyl-thiazol-4-yl)-ethyl]-amide], `CCC(CC)(NC(=O)c1cncc2c1cnn2-c1ccc(F)cc1)c1cnc(S(C)(=O)=O)s1` [1-(4-Fluorophenyl)-1H-pyrazolo[3,4-c]pyridine-4-carboxylic acid [1-ethyl-1-(2-methanesulfonyl-thiazol-5-yl)-propyl]-amide] is 7-fold higher in IC50: 4 nM for the first, 28 nM for the second. The first is the more potent here.

First: CC[C@H](NC(=O)c1cncc2c1cnn2-c1ccc(F)cc1)c1cnc(SC)o1 [1-(4-Fluorophenyl)-1H-pyrazolo[3,4-c]pyridine-4-carboxylic acid [(S)-1-(2-methylsulfanyl-oxazol-5-yl)-propyl]-amide]
Second: CC[C@H](NC(=O)c1cncc2c1cnn2-c1ccc(F)cc1)c1cnn(C)c1 [1-(4-Fluorophenyl)-1H-pyrazolo[3,4-c]pyridine-4-carboxylic acid [(S)-1-(1-methyl-1H-pyrazol-4-yl)-propyl]-amide]
The IC50 of the first is 11-fold lower: 1 nM for the first, 11 nM for the second. The first is the more potent here.

First: CC(=O)N(C)c1ncc(CNC(=O)c2cncc3c2cnn3-c2ccc(F)cc2)cn1 [1-(4-Fluorophenyl)-1H-pyrazolo[3,4-c]pyridine-4-carboxylic acid [2-(acetyl-methyl-amino)-pyrimidin-5-ylmethyl]-amide]
Second: O=C(NCc1cnc(N2CCOCC2)nc1)c1cncc2c1cnn2-c1ccc(F)cc1 [1-(4-Fluorophenyl)-1H-pyrazolo[3,4-c]pyridine-4-carboxylic acid (2-morpholin-4-yl-pyrimidin-5-ylmethyl)-amide]
The IC50 of the first is 3-fold higher: 24 nM for the first, 8 nM for the second.

Compared with `CC[C@H](NC(=O)c1nccc2c1cnn2-c1ccc(F)cc1)c1ccnc(S(C)(=O)=O)c1` [1-(4-Fluorophenyl)-1H-pyrazolo[4,3-c]pyridine-4-carboxylic acid [(S)-1-(2-methanesulfonyl-pyridin-4-yl)-propyl]-amide], `CCC(NC(=O)c1cncc2c1cnn2-c1ccc(F)cc1)c1nc(C(=O)NC)co1` (centres unmarked) [1-(4-Fluorophenyl)-1H-pyrazolo[3,4-c]pyridine-4-carboxylic acid [1-(4-methylcarbamoyl-oxazol-2-yl)-propyl]-amide] is 5.3-fold higher in IC50: 3 nM for the first, 16 nM for the second. The first is the more potent here.

Reference: US8063065B2, “Azaindazole compounds as CCR1 receptor antagonists” (Boehringer Ingelheim International GmbH, priority 2008, dated 2011)
